Our source for the EC50, Ki and solubility values is patent US7615642B2, “Therapeutic compounds” (priority 2006, dated 2009).

Structures are written as SMILES. pEC50, pKi: −log10 of the molar value. Values after ≈ are worked out from the molar mass of the structure shown.

For series [1], the target named is T1, Human CB1 receptor (Homo sapiens, UniProt P21554).
T1 construct: purchased Receptor Biology
Put plainly: hCB1 GTPγS binding. The series is classed as biochemical. Conditions: human CB1 membranes, GTPg35S binding. The method, then:
Human CB1 receptor from Receptor Biology (hCB1) or human CB2 receptor membranes (BioSignal) are thawed at 37° C., passed 3 times through a 25-gauge blunt-end needle and diluted in the GTPγS binding buffer (50 mM Hepes, 20 mM NaOH, 100 mM […], 1 mM EDTA, 5 mM MgCl2, pH 7.4, 0.1% BSA). The EC50 and Emax of the compounds of the invention are evaluated from 10-point dose-response curves done in […] with the appropriate amount of membrane protein and 100000-130000 dpm of GTPg^35S per well (0.11-0.14 nM). The basal and maximal stimulated binding is determined in absence and presence of 1 μM (hCB2) or 10 μM (hCB1) Win 55,212-2 respectively. The membranes are pre-incubated for 5 minutes with 56.25 μM (hCB2) or 112.5 μM (hCB1) GDP prior to distribution in plates (15 μM (hCB2) or 30 μM (hCB1) GDP final). The plates are vortexed and incubated for 60 minutes at room temperature, filtered on Unifilters GF/B (presoaked in water) with the Tomtec or Packard harvester using 3 ml of wash buffer (50 mM Tris, 5 mM MgCl2, 50 mM NaCl, pH 7.0). The filters are dried for 1 hour at 55° C. The radioactivity (cpm) is counted in a TopCount (Packard) after adding 65 μl/well of MS-20 scintillation liquid. Antagonist reversal studies are done in the same way except that (a) an agonist dose-response curve is done in the presence of a constant concentration of antagonist, or (b) an antagonist dose-response curve is done in the presence of a constant concentration of agonist.
In general terms: GTPγS is a poorly hydrolysed GTP analogue; its binding reports G protein activation.

The target of series [2] is T1, Human CB1 receptor. Put plainly: hCB1 receptor binding (3H-CP55,940 displacement). The method, then:
Human CB1 receptor from Receptor Biology (hCB1) or human CB2 receptor from BioSignal (hCB2) membranes are thawed at 37° C., passed 3 times through a 25-gauge blunt-end needle, diluted in the cannabinoid binding buffer (50 mM Tris, 2.5 mM EDTA, 5 mM MgCl2, and 0.5 mg/mL BSA fatty acid free, pH 7.4) and aliquots containing the appropriate amount of protein are distributed into 96-well plates. The IC50 of the compounds of the invention at hCB1 and hCB2 are evaluated from 10-point dose-response curves done with ^3H-CP55,940 at 20000 to 25000 dpm per well (0.17-0.21 nM) in a final volume of 300 μl. The total and non-specific binding are determined in the absence and presence of 0.2 μM of HU210 respectively. The plates are vortexed and incubated for 60 minutes at room temperature, filtered through Unifilters GF/B (presoaked in 0.1% polyethyleneimine) with the Tomtec or Packard harvester using 3 mL of wash buffer (50 mM Tris, 5 mM MgCl2, 0.5 mg BSA pH 7.0). The filters are dried for 1 hour at 55° C. The radioactivity (cpm) is counted in a TopCount (Packard) after adding 65 μl/well of MS-20 scintillation liquid.
Based on the above assays, the dissociation constant (Ki) for a particular compound of the invention towards a particular receptor is determined using the following equation: Ki=IC50/(1+[rad]/Kd),
Wherein IC50 is the concentration of the compound of the invention at which 50% displacement has been observed;
[rad] is a standard or reference radioactive ligand concentration at that moment; and
Kd is the dissociation constant of the radioactive ligand towards the particular receptor.

T1 sequence (P21554 whole entry): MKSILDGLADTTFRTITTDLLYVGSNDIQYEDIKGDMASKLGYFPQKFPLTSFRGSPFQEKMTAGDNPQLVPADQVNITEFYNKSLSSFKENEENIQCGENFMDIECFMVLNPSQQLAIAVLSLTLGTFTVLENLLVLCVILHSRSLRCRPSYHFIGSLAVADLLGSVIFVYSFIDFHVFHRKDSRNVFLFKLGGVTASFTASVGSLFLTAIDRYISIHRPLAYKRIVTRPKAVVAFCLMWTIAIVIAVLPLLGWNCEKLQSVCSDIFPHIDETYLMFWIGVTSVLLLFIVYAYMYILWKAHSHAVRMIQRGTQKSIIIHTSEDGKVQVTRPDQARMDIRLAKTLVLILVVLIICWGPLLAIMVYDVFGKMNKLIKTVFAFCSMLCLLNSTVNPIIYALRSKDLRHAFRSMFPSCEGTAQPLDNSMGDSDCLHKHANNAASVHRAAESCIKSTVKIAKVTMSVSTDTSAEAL

One may read the pEC50 as −log10 of the EC50, conventionally taken in molar units. As a reminder, the pKi is the Ki on a negative log10 scale, so that one unit is a factor of ten. As usually defined, the solubility is how much of the substance goes into solution per volume. `CC(C)(C)c1nc2cc(S(=O)(=O)n3cc(C(=O)NC4CC4)cn3)ccc2n1CC1CCC(F)(F)CC1` [1-({2-tert-Butyl-1-[(4,4-difluorocyclohexyl)methyl]-1H-benzimidazol-5-yl}sulfonyl)-N-cyclopropyl-1H-pyrazole-4-carboxamide] showed a pEC50 at Human CB1 receptor [1] of 9.24. The molecule further showed a pKi at Human CB1 receptor [2] of 9.06. This molecule had a solubility in the series “Solubility” of 6.16 µM (≈ 3.2 µg/mL).

The molecule `CC(C)NC(=O)c1cnn(S(=O)(=O)c2ccc3c(c2)nc(C(C)(C)C)n3CC2CCC(F)(F)CC2)c1` [1-({2-tert-Butyl-1-[(4,4-difluorocyclohexyl)methyl]-1H-benzimidazol-5-yl}sulfonyl)-N-isopropyl-1H-pyrazole-4-carboxamide] gave a pEC50 at Human CB1 receptor [1] of 8.47. Further, the pKi on Human CB1 receptor [2] was 8.74. This molecule registered a solubility in the series “Solubility” of 0.26 µM (≈ 0.136 µg/mL).

On to `CNC(=O)c1cnn(S(=O)(=O)c2ccc3c(c2)nc(C(C)(C)C)n3CC2CCC(F)(F)CC2)c1` [1-({2-tert-Butyl-1-[(4,4-difluorocyclohexyl)methyl]-1H-benzimidazol-5-yl}sulfonyl)-N-methyl-1H-pyrazole-4-carboxamide], for which, at Human CB1 receptor [1], the pEC50 was 8.92. On Human CB1 receptor [2], this molecule gave a pKi of 8.79. The solubility in “Solubility” was 2.52 µM (≈ 1.24 µg/mL).

Molecule `CCNC(=O)c1ccn(S(=O)(=O)c2ccc3c(c2)nc(C(C)(F)F)n3CC2CCOCC2)c1` [1-{[2-(1,1-Difluoroethyl)-1-(tetrahydro-2H-pyran-4-ylmethyl)-1H-benzimidazol-5-yl]sulfonyl}-N-ethyl-1H-pyrrole-3-carboxamide] showed a pKi on Human CB1 receptor [2] of 7.06. The molecule also came in with a solubility in the series “Solubility” of 7.45 µM (≈ 3.58 µg/mL).

For `CC(C)(C)c1nc2cc(S(=O)(=O)n3ccc(N)n3)ccc2n1CC1CCOCC1` [1-{[2-tert-Butyl-1-(tetrahydro-2H-pyran-4-ylmethyl)-1H-benzimidazol-5-yl]sulfonyl}-1H-pyrazol-3-amine], on Human CB1 receptor [2], the pKi is 6.60. The molecule further gave a solubility in the series “Solubility” of 43 µM (≈ 18 µg/mL).

`CC(C)(C)c1nc2cc(S(=O)(=O)n3ccc(C(=O)NC4CC4)c3)ccc2n1CC1CCOCC1` [1-{[2-tert-Butyl-1-(tetrahydro-2H-pyran-4-ylmethyl)-1H-benzimidazol-5-yl]sulfonyl}-N-cyclopropyl-1H-pyrrole-3-carboxamide] had a pEC50 on Human CB1 receptor [1] of 7.98. Besides, the pKi on Human CB1 receptor [2] is 8.25. The molecule also came in with a solubility in the series “Solubility” of 5.64 µM (≈ 2.73 µg/mL).

`CCNC(=O)c1cnn(S(=O)(=O)c2ccc3c(c2)nc(C(C)(C)C)n3CC2CCOCC2)c1` [1-{[2-tert-Butyl-1-(tetrahydro-2H-pyran-4-ylmethyl)-1H-benzimidazol-5-yl]sulfonyl}-N-ethyl-1H-pyrazole-4-carboxamide] showed a pEC50 on Human CB1 receptor [1] of 7.24. On Human CB1 receptor [2], this molecule showed a pKi of 7.84. This molecule also yielded a solubility in “Solubility” of 337 µM (≈ 160 µg/mL).

Consider `CNC(=O)C1CCN(S(=O)(=O)c2ccc3c(c2)nc(C(C)(C)C)n3CC2CCOCC2)C1` (stereo not drawn) [1-{[2-tert-Butyl-1-(tetrahydro-2H-pyran-4-ylmethyl)-1H-benzimidazol-5-yl]sulfonyl}-N-methylpyrrolidine-3-carboxamide], for which, at Human CB1 receptor [2], the pKi was 6.08. Further, in the series “Solubility”, the concentration in solution (solubility) came to 2600 µM (≈ 1200 µg/mL).

Turning to `CCNC(=O)c1ccn(S(=O)(=O)c2ccc3c(c2)nc(C(C)(C)C)n3CC2CCOCC2)c1` [1-{[2-tert-butyl-1-(tetrahydro-2H-pyran-4-ylmethyl)-1H-benzimidazol-5-yl]sulfonyl}-N-ethyl-1H-pyrrole-3-carboxamide], at Human CB1 receptor [1], the pEC50 is 7.07. Besides, on Human CB1 receptor [2], the pKi was 7.62. In “Solubility”, the solubility is 28 µM (≈ 13.2 µg/mL).

`CC(C)(C)c1nc2cc(S(=O)(=O)N3CCOCC3)ccc2n1CC1CCOCC1` [2-tert-Butyl-5-(morpholin-4-ylsulfonyl)-1-(tetrahydro-2H-pyran-4-ylmethyl)-1H-benzimidazole] showed a pKi at Human CB1 receptor [2] of 5.81. Besides, the concentration in solution in “Solubility” (solubility) came to 128 µM (≈ 54.1 µg/mL).

Regarding `CC(C)(C)c1nc2cc(S(=O)(=O)N3CCCC(c4ccccc4)C3)ccc2n1CC1CCOCC1` (stereo not drawn) [2-tert-Butyl-5-[(3-phenylpiperidin-1-yl)sulfonyl]-1-(tetrahydro-2H-pyran-4-ylmethyl)-1H-benzimidazole], the pKi at Human CB1 receptor [2] is 6.56. Also, the solubility in “Solubility” worked out at 0.79 µM (≈ 0.392 µg/mL).

`CC(C)(C)c1nc2cc(S(=O)(=O)N3CCC(c4ccccc4)C3)ccc2n1CC1CCOCC1` (stereo not drawn) [2-tert-Butyl-5-[(3-phenylpyrrolidin-1-yl)sulfonyl]-1-(tetrahydro-2H-pyran-4-ylmethyl)-1H-benzimidazole] gave a pKi at Human CB1 receptor [2] of 6.96. Further, the concentration in solution in “Solubility” (solubility) was 7.29 µM (≈ 3.51 µg/mL).

The molecule `CC(C)(C)c1nc2cc(S(=O)(=O)N3CCOC(C(=O)NC4CC4)C3)ccc2n1CC1CCC(F)(F)CC1` (stereo not drawn) [4-({2-tert-Butyl-1-[(4,4-difluorocyclohexyl)methyl]-1H-benzimidazol-5-yl}sulfonyl)-N-cyclopropylmorpholine-2-carboxamide] had a pEC50 at Human CB1 receptor [1] of 7.98. Moreover, the pKi on Human CB1 receptor [2] is 7.95. The solubility in “Solubility” was found to be 42.5 µM (≈ 22.9 µg/mL).

`CCNC(=O)[C@@H]1CN(S(=O)(=O)c2ccc3c(c2)nc(C(C)(C)C)n3CC2CCC(F)(F)CC2)CCO1` [(2S)-4-({2-tert-butyl-1-[(4,4-difluorocyclohexyl)methyl]-1H-benzimidazol-5-yl}sulfonyl)-N-ethylmorpholine-2-carboxamide] showed a negative-log EC50 (pEC50) at Human CB1 receptor [1] of 7.36. This molecule also gave a pKi on Human CB1 receptor [2] of 7.74. The same molecule registered a solubility in “Solubility” of 43.4 µM (≈ 22.8 µg/mL).

Molecule `CC(C)(C)c1nc2cc(S(=O)(=O)N3CCC[C@H](C(=O)NC4CC4)C3)ccc2n1CC1CCC(F)(F)CC1` [(3S)-1-({2-tert-Butyl-1-[(4,4-difluorocyclohexyl)methyl]-1H-benzimidazol-5-yl}sulfonyl)-N-cyclopropylpiperidine-3-carboxamide] gave a pEC50 at Human CB1 receptor [1] of 8.77. The pKi at Human CB1 receptor [2] is 8.69. This molecule also registered a solubility in “Solubility” of 29.4 µM (≈ 15.8 µg/mL).

`CCCNC(=O)[C@H]1CCCN(S(=O)(=O)c2ccc3c(c2)nc(C(C)(C)C)n3CC2CCC(F)(F)CC2)C1` [(3S)-1-({2-tert-Butyl-1-[(4,4-difluorocyclohexyl)methyl]-1H-benzimidazol-5-yl}sulfonyl)-N-propylpiperidine-3-carboxamide]: the pEC50 on Human CB1 receptor [1] is 8.77. Further, the pKi on Human CB1 receptor [2] is 8.69. For the same molecule, the solubility in the series “Solubility” turned out to be 16.8 µM (≈ 9.04 µg/mL).

`CC(F)(F)c1nc2cc(S(=O)(=O)n3ccc(C(=O)NC4CC4)c3)ccc2n1CC1CCOCC1` [N-Cyclopropyl-1-{[2-(1,1-difluoroethyl)-1-(tetrahydro-2H-pyran-4-ylmethyl)-1H-benzimidazol-5-yl]sulfonyl}-1H-pyrrole-3-carboxamide] gave a pEC50 on Human CB1 receptor [1] of 7.75. Further, the negative-log Ki (pKi) at Human CB1 receptor [2] is 7.72. Further, in “Solubility”, the concentration in solution (solubility) was 6.2 µM (≈ 3.05 µg/mL).
